According to patent US20040054292A1, “Non-invasive apparatus system for monitoring autonomic nervous system and uses thereof” (INDUSTRIAL TECHNOLOGY RESEARCH INSTITUTE, priority 2002, published 2004):

Tests used:
[1] = tested on: autonomic nervous system; assay: Heart rate variability spectral analysis in anesthetized rats after intravenous drug; assay type: in vivo, Sprague-Dawley rats; conditions: for high frequency (index of parasympathetic nervous activity): 0.5 to 2.4 Hz
Experimental: Matured male Sprague-Dawley rats (weighed 250-350 g) were first sensitizing anesthetized by intraperitoneal injecting of pentobarbital sodium (50 mg/kg) and then were general anesthetized by continuously infusion with pentobarbital sodium (15 mg/kg). The rats were intubated in both femoral veins, wherein one was used for continuously dropping anesthesia and the other was used for delivering testing drug. The rates were tracheal intubated to connect with a respirator (Havard 683) for mechanical respiration. In addition, the skeletal muscle of the whole body of the animals was anesthetized by administrating pancuronium. In order to record the artery pressure, the intubation at the right femoral artery was linked to a PE-50 tube connected with a syringe pre-filled with heparinized saline (200 unit/mL). The artery pressure and heart rate were recorded by a pressure sensory machine ([…], Hewlett-Packard) in the tube. The artery pressure was converted by a pressure converter (Statham, P231D, frequency range: DC to 200 Hz), amplified by a pre-amplifier (Gould, G-13-4615-52), and then filtered (DC to 100 Hz). Electrocardiograph signal was recorded by a second guided electrocardiograph recorder. The signal was amplified by a pre-amplifier(Gould G-20-4615-58) and then filtered (3-300 Hz). At the same time, the signal and the artery pressure were caught by a 12 bit analog-digital converter in an analyzing computer in a frequency of 256 points per second in every channel. The computer used was an IBM-PC compatible type comprising an Intel 80486 micro processor and a 4 MB memory. The Heart rate signals (digital blood pressure signal or electrocardiograph signal) were simultaneously and continuously on-line analyzed by the Fast Fourier Transform method, and the power of each special frequency interval was quantified by integration. High frequency (frequency between 0.5 to 2.4 Hz) in spectrum was considered as an index of parasympathetic nervous function, low frequency % [=100× low frequency/(high frequency+low frequency)] was considered as an index of sympathetic nervous function, and the means of heart rate period and variance were considered as references. The rats were divided into three groups, and each group had 4 to 6 animals. A group of animals were intravenously administered with yohimbine (1 mg/kg), which is a central nervous system α2 receptor antagonist being able to stimulate sympathetic nervous functions and inhibit parasympathetic nervous functions. Another group of animals was intravenously administered with guanabenz (100 μg/kg), which is a central nervous system α2 receptor agonist being able to inhibit sympathetic nervous functions and stimulate parasympathetic nervous functions. The animals administered with saline of the same volume was classified as a controlled group. Prior to applying the drugs, basal blood pressure, mean value of heart rate period and spectral analysis were measured for about 10 minutes, and after the drugs being intravenously administered, the effects of the drugs were measured for 30 minutes. […] Therefore, low frequency % is shown to be a valid index of the sympathetic nervous activity, and high frequency an index of the parasympathetic nervous activity, respectively. […]

[2] = tested on: autonomic nervous system; assay: Heart rate variability (ECG spectral analysis) in apoplectic patients complicated with hypertension before and after drug; assay type: in vivo, human; conditions: labetalol 12.5 mg injected
Experimental: In this human experiment, the non-invasive apparatus system of the invention was used to monitor the autonomic nervous system functional change side effects caused by drugs. Four (two females and two males) apoplectic patients complicated with hypertension at the age of 77.3±8.8 (± means standard deviation) were chosen in the study. The patients were divided into two groups: (1) the control group and (2) the labetalol group (the experiment group). All patients, 5 minutes before administrating the drug, were classified as the control group. After being treated/injected with labetalol (12.5 mg) for 5 minutes, the patients became the labetalol group. Labetalol is an α and β combined epinephrine antagonist (a sympathetic hormone epinephrine blocker) for lowering blood pressure. Treatment and analysis of the electrocardiograph (ECG) were conducted similarly to those recited in Example 1, except that the ranges of the frequencies were determined based on those of humans. The power of each frequency range comprising variance, low frequency power (0.04-0.15 Hz) and high frequency power (0.15-0.4 Hz) was quantified by integration. Parameters of the ratios of low frequency/high frequency (LF/HF ratio) and low frequency rate (LF%) were also calculated at the same time. The values of variance, LF, HF and LF/HF were logarithmically transformed to correct the distribution bias. All data were presented as mean ±SD, and the differences between the experimental and control groups were examined by paired t-test, wherein a value of p<0.05 is considered as the data having a statistic meaning. […] Variance and HF responses were uncertain (P>0.05). In light of the results of the experiment, it has been proven that non-invasive apparatus system of the invention can be used in patients for monitoring autonomic nervous system functional change side effects caused by drugs.

[3] = yohimbine 1 mg/kg intravenously, FIG. 3
[4] = 5 minutes after vs before, P>0.05, FIG. 4
[5] = 5 minutes after vs before, p<0.05, FIG. 4
[6] = guanabenz 100 μg/kg intravenously, FIG. 2
[7] = guanabenz 100 μg/kg intravenously, measured for 30 minutes after drug, FIG. 2

COC(=O)[C@@H]1[C@H]2C[C@H]3c4[nH]c5ccccc5c4CCN3C[C@@H]2CC[C@@H]1O [yohimbine]
high frequency (index of parasympathetic nervous activity) [1, 3]: lowered | heart rate period [1, 3]: lowered | low frequency % (index of sympathetic nervous activity) [1, 3]: tremendously increased

CC(CCc1ccccc1)NCC(O)c1ccc(O)c(C(N)=O)c1 (stereo not drawn) [labetalol]
heart rate period ([2]; 5 minutes after vs 5 minutes before, four patients, p<0.05, FIG. 4): increased | HF response [2, 4]: uncertain | Variance response [2, 4]: uncertain | LF % (index of heart sympathetic nervous activity) [2, 5]: decreased | LF/HF (index of heart sympathetic nervous activity) [2, 5]: decreased

N=C(N)N/N=C/c1c(Cl)cccc1Cl [guanabenz]
high frequency (index of parasympathetic nervous activity) [1, 6]: increased | low frequency % (index of sympathetic nervous activity) [1, 6]: tremendously lowered | heart rate period [1, 7]: increased | heart rate variability [1, 7]: increased
